# Key:
# [1] = system: SK-MES-1 squamous lung cell carcinoma cell; assay: Crystal violet microtiter assay, Pivanex then cytotoxic drug, SK-MES-1; assay type: cell-based; details: for SK-MES-1 cancer cell viability (A^490 Absorbance): paclitaxel 0 μM
# Description: T24 Bladder transitional carcinoma cells, Calu-6 anaplastic lung carcinoma cells, and SK-MES-1 squamous lung cell carcinoma cell cultures were purchased from the American Type Culture Collection (Manassas, Va.). All cell lines were cultured in RPMI-1640 with 10% fetal calf serum. For culture in microtiter dishes, cells were plated at a density of 10^4 cells/well and incubated at 37° C., 5% CO2 overnight.
# After overnight incubation, drugs were added to wells in quadruplicate and incubated for 6 to 96 hours in the presence or absence of the oxyalkylene containing compound. […] the media was removed, fresh media were added with cytotoxic drug, and the cultures were incubated for another 6 hours.
# The wells were then washed and medium without drug was added to each well. Microtiter plates were subsequently incubated for an additional 3 days before cell density was determined by a Crystal Violet Assay. Some cultures were alternatively fixed in methanol and stained with hematoxylin and eosin (H&E) stain for 5 minutes prior to microphotography.
# PIVANEX (pivaloyloxymethyl butyrate) was obtained from Titan Pharmaceuticals Inc. (South San Francisco, Calif.) and was admixed with 0.05% Intralipid™ (Fresenius Kabi, Clayton, N.C.) prior to addition to culture media. The cytotoxic drugs gemcitabine (Gemzar; Eli Lilly and Co., Indianapolis, Ind.), cisplatin (Platinol, Bristol-Myers Squibb Co., Princeton, N.J.), paclitaxel (Taxol; Bristol-Myers Squibb Co., Princeton, N.J.), and docetaxel (Taxotere, Aventis Pharmaceuticals Products, Inc., Bridgewater, N.J.) were studied with PIVANEX.
# Cells in microtiter wells were rinsed with PBS and fixed in two volumes of 100% cold methanol for 5 minutes. One volume of 0.5% crystal violet in 20% methanol was added and the attached cells stained for 10 minutes. The cells were then washed and crystal violet was eluted with 0.1 N sodium citrate buffer and read on an ELISA plate reader at 490 nm.
# H522 NSCLC cell line = assay: MTS growth inhibition assay, sequencing of Pivanex and docetaxel, H522; assay type: cell-based, human; details: after 24 hour exposure
# Description: Human Non-Small Cell Lung Carcinoma Cell Lines, H522 and NCI-H23, were evaluated for growth inhibitory activity of Pivanex, alone and in combination with the standard chemotherapeutic agent, docetaxel. Cells were treated for three days with Pivanex followed by 24 hours of exposure to docetaxel or the cells were treated for 24 hours with docetaxel followed by three days of exposure to Pivanex. The cell growth inhibition was judged at the end of the 4-day experiments by a standard staining technique using MTS tetrazolium vital stain. […]
# Exponentially growing cells were harvested with trypsin (0.05%)/EDTA (0.02%) and re-suspended in fresh medium containing 10% FBS. […] Absorbance was documented on a Dynex HD microplate reader at a wavelength of 490 nm. IC50 values were determined by using the Prism® GraphPad software from 3 different tests, each of which involved 4 replicates for each dose determination. The data are presented as percent growth inhibition, where 0% represents the mean value in wells to which only vehicle (0.1% DMSO) was added and was calculated as follows: % Growth Inhibition=(1−(ODtest/ODvehicle))×100 where ODtest is the optical density of the tested sample, OD vehicle is the optical density of the vehicle in which each respected drug is dissolved. […]
# T24 bladder cancer cells = assay: Pretreatment followed by various chemotherapeutic agents, T24; assay type: cell-based, human
# Description: Human T24 bladder and A549 lung cancer cells were exposed to increasing concentrations of pivaloyloxymethyl butyrate for 6 or 72 hours followed by exposure to various chemotherapeutic agents. […] At higher dosages the increase in cytotoxicity following the sequential regimen would show after a shorter induction period with pivaloyloxymethyl butyrate as discussed above.
compound,measurement,setting,value
"CCCC(=O)OCOC(=O)C(C)(C)C [Pivanex, pivaloyloxymethyl butyrate]",SK-MES-1 cancer cell viability (A^490 Absorbance),[1]; Pivanex 10 μM,0.743
same,SK-MES-1 non-small cancer cell viability (A^490 Absorbance),[1]; Pivanex 25 μM alone,1.852
same,SK-MES-1 cancer cell viability (A^490 Absorbance),[1]; Pivanex 50 μM,0.769
same,SK-MES-1 non-small cancer cell viability (A^490 Absorbance),[1]; Pivanex 100 μM alone,1.908
same,SK-MES-1 non-small cancer cell viability (A^490 Absorbance),[1]; Pivanex 200 μM alone,1.952
same,cell growth with agent alone,H522 NSCLC cell line,steep increase in H522 cell growth
same,enhancement of cytotoxicity of chemotherapeutic agents,"T24 bladder cancer cells; T24, 6-hour pretreatment, lower doses",did not enhance cytotoxicity
same,enhancement of cytotoxicity of chemotherapeutic agents,"T24 bladder cancer cells; T24, 72-hour pretreatment",did enhance drug-induced cytotoxicity

# Source: patent US20060089410A1, “Combination of chemotherapeutic drugs for increasing antitumor activity” (Titan Pharmaceuticals, Inc., priority 2002, published 2006)
